Consider two compounds from patent publication US8273404B2, “Extraction of solvents from drug containing polymer reservoirs” (Cordis Corporation, priority 2008, dated 2012).

Series [1] relates to coronary restenosis after angioplasty. The series is described as follows: MultiVitamins and Probucol (MVP) randomized clinical trial, angiographic and clinical endpoints. Format: in vivo, human. From the text: It was not possible to determine with angiography alone whether probucol acted via inhibition of tissue hyperplasia or improvement in vascular remodeling. […] In addition, the invention enables the skilled practitioner to use probucol in conjunction with other percutaneous coronary interventions such as stenting if it is deemed appropriate.
(§1) Beginning thirty days prior to scheduled angioplasty, patients were randomly assigned to receive either probucol alone, multivitamins alone, the combination of probucol and multivitamins, or placebo. Probucol 500 mg or matched placebo was administered twice daily. The multivitamin complex, consisting of vitamin E 700 IU, vitamin C 500 mg and beta-carotene 30,000 IU, or matched placebo was also administered in one tablet twice daily. All patients received an extra dose of probucol 1000 mg and/or vitamin E 2000 IU and/or matched placebos twelve hours before angioplasty, according to randomization assignment. […] All patients received aspirin 325 mg daily started at least thirty days before procedure and continued for the study period. Balloon angioplasty was performed according to standard techniques. Intracoronary nitroglycerin (0.3 mg) was given for each target artery for both pre- and post-dilatation angiography and at follow-up. The sequence of contrast injections with the exact degree of angulation was recorded and used for every angiogram. Coronary arteriograms (pre-, post-procedure, and final follow-up) were analyzed together using the Coronary Measurement System (CMS), as previously reported. Patient follow-up included clinical evaluation, exercise treadmill testing, blood chemistry, pill count and drug level measurements, and dietary assessment and intervention. Patients were readmitted for follow-up coronary angiography at five to seven months. Patients in whom arteriography was performed for clinical reasons before the fifth month returned for repeat angiographic examination at five to seven months if no definite angiographic restenosis was present on at least one dilated site. During follow-up, patients with recurrence or exacerbation of anginal symptoms were treated with medical therapy or revascularization procedures (reangioplasty or Coronary Bypass Surgery) as clinically indicated. Patients with angiographic restenosis (lesion>50%. at follow-up) without clinical evidence of ischemia were not subjected to further interventional procedures.
Probucol is one of the first pharmacological interventions shown to prevent coronary restenosis after balloon angioplasty. However, its mechanism of action and its efficacy as a vascular remodeling agent has never been studied. […]

In series [2] the test system is coronary arteries after balloon angioplasty. The series is described as follows: IVUS substudy of the MVP restenosis trial (lumen, wall, EEM areas after balloon angioplasty). Format: in vivo, human. The protocol:
The present invention concerns the IVUS substudy from the MVP restenosis trial. MVP was a double-blind placebo-controlled randomized clinical trial with four study groups. The protocol was approved by the Montreal Heart Institute institutional review board. The MVP study design, inclusion and exclusion criteria have been previously described (N Engl J Med 1997; 365-372). Briefly, patients referred for elective coronary angioplasty were evaluated at least 30 days prior to their scheduled procedure. Eligible patients were asked to provide written informed consent. Patients were eligible if they were scheduled to undergo standard balloon angioplasty on at least one native coronary artery and had at least one de novo target lesion with luminal narrowing of fifty percent or more by caliper measurements.
as §1, with “Patients in whom arteriography was performed for clinical reasons before the fifth month returned for repeat angiographic examination at five to seven months if no definite angiographic restenosis was present on at least one dilated site. During follow-up, patients with recurrence or exacerbation of anginal symptoms were treated with medical therapy or revascularization procedures (reangioplasty or Coronary Bypass Surgery) as clinically indicated. Patients with angiographic restenosis (lesion>50%. at follow-up) without clinical evidence of ischemia were not subjected to further interventional procedures.” left out
IVUS examinations were performed using 30 MHZ, 3.5 French mechanical (1800 rpm) ultrasound catheters (Boston Scientific, Natick, Mass.) and a dedicated imaging console (Hewlett Packard, Andover, Mass.) (Curr Opin Cardiol 1994; 9:627-633). […] IVUS imaging was monitored by an experienced cardiologist, but the angioplasty operator was blinded to ultrasound results to avoid altering standard balloon angioplasty practice. […] One angiographic view was recorded on videotape before beginning pullback of the IVUS catheter. […]

The subject of the next series is LDL. The series can be described thus: Ex vivo LDL peroxidation (diene conjugates after addition of copper ions) of MVP patients. Further details: species or system human. To be noted: treatment for one month, preliminary results. The source says:
Dietary intervention and smoking habits were similar in all groups. Probucol may simply be a more powerful antioxidant than the combination of vitamins. To this regard, preliminary results from the continuous spectrophotometric monitoring of diene conjugates in LDL after the addition of copper ions to the isolated lipoprotein ex vivo (Free Radic Res Commun 1989; 6:67-75) of MVP patients are noteworthy.

The format of series [3] is physicochemical. The note with it: 0.02 weight percent BHT per total basecoat solids. From the text: Referring to FIG. 113, there is illustrated in graphical format, the results of the same drug screening as described above with the solution applied to a cobalt-chromium, 18 mm stent. In this test, two sets of solution samples were utilized, one with sirolimus and polymer solution containing the antioxidant and one with sirolimus and polymer solution containing no antioxidant. The antioxidant utilized was 0.02 weight percent BHT per total basecoat solids. The test was utilized to determine the percent drug content change over a time period of 0 to 12 weeks under two conditions; namely, 40° C. with 75 percent relative humidity, and ambient conditions (25° C.).

Structures are written as SMILES.

`CC(C)(Sc1cc(C(C)(C)C)c(O)c(C(C)(C)C)c1)Sc1cc(C(C)(C)C)c(O)c(C(C)(C)C)c1` [Probucol Alone, 4,4′-([1-methylethylidene)bis(thio)]bis-[2,6-bis(1,1-dimethylethyl)phenol]]: the “patients in whom restenosis still occurred” value in series [1] (probucol alone) is given as “over twenty percent”. Further, in series [1] (probucol given alone), the “reduction of angiographic lumen loss compared to placebo” value is “sixty-eight percent”, the “reduction of restenosis rate per segment compared to placebo” value was “forty-seven percent” and the “reduction of the need for repeat angioplasty at 6 month compared to placebo” value is listed as “fifty-eight percent”. The “reduction in lumen loss compared to non-probucol treated patients” value in series [2] (IVUS, patients receiving probucol) is 0.79 mm^2. For the same compound, the “Lumen area, Follow-up Post PTCA (change)” value in series [2] (IVUS, per segment analysis) is −0.15 ± 1.70 mm^2. Also, the “reduction in lumen loss compared to the placebo group only” value in series [2] (IVUS, probucol given alone) is 1.06 mm^2. The “Lumen area, Follow-up Post PTCA (change)” value in series [2] (efficacy analysis in compliant patients) is given as −0.15 ± 1.70 mm^2. Also, the “protection against LDL oxidation (lag phase for LDL peroxidation)” value in the series with LDL was “significantly greater protection against LDL oxidation than vitamins alone or the combination of probucol and vitamins”.

As for `Cc1cc(C(C)(C)C)c(O)c(C(C)(C)C)c1` [BHT, Butylated Hydroxytoluene], in series [3], the “effect on sirolimus drug degradation on coated stent” value was “lessens drug degradation at both 8 weeks and 12 weeks”.
